# Active and inactive are the calls of the source. The calls are words filed in the database; no cut-off is given here.
# Experiments:
# Enterococcus faecalis = test: Antibacterial activity against Enterococcus faecalis measured by Muller-Hinton broth based microdilution assay; format: functional
# Staphylococcus aureus [1] = test: Induction of oxidative stress in Staphylococcus aureus assessed as decrease in GSH activity at 1 to 8 times MIC measured after 6 hrs by Ellman's assay; format: functional, organism-based
# Staphylococcus aureus [2] = test: Antibacterial activity against methicillin-resistant Staphylococcus aureus N315 measured by Muller-Hinton broth based microdilution assay; format: functional
# Klebsiella pneumoniae = test: Antibacterial activity against Klebsiella pneumoniae measured by Muller-Hinton broth based microdilution assay; format: functional
# Escherichia coli [3] = test: Antibacterial activity against Escherichia coli ATCC 25922 measured by Muller-Hinton broth based microdilution assay; format: functional
# Staphylococcus aureus [4] = test: Induction of inner membrane permeabilization in Staphylococcus aureus by measuring increase in fluorescence intensity at 1 to 8 times MIC by calcein-AM/PI staining based fluorescence analysis; format: functional, organism-based
# Staphylococcus aureus [5] = test: Antibacterial activity against Staphylococcus aureus measured after 16 passages by resistance development assay; format: functional, organism-based
# Staphylococcus aureus [6] = test: Disruption of membrane integrity in Staphylococcus aureus assessed as increase in protein leakage by measuring increase in absorbance 1 to 8 times MIC measured for 6 hrs by Bradford assay; format: functional, organism-based
# Staphylococcus aureus [7] = test: Antibacterial activity against Staphylococcus aureus ATCC 29213 measured by Muller-Hinton broth based microdilution assay; format: functional
# [8] = Selectivity ratio of HC50 for hemolytic activity in human RBC to MIC for antibacterial activity against Staphylococcus aureus; format: toxicity; conditions: human red blood cells (erythrocytes)
# Staphylococcus aureus [9] = test: Induction of membrane depolarization in Staphylococcus aureus at 0.5 to 2 times MIC measured upto 1 hr by DiSC35 dye-based fluorescence assay; format: functional, organism-based
# Staphylococcus aureus [10] = test: Antibacterial activity against Staphylococcus aureus assessed as reduction in metabolic activity at 1 to 8 times MIC measured after 6 hrs by Alamar blue assay; format: functional, organism-based
# Staphylococcus aureus [11] = test: Antibiofilm activity in Staphylococcus aureus at 1 to 8 times MIC measured by Alamar blue assay; format: functional, organism-based
# [12] = Hemolytic activity in human RBC measured after 1 hr; format: toxicity, cell-based, Erythrocyte; conditions: human red blood cells (erythrocytes)
# Staphylococcus aureus [13] = test: Antibacterial activity against Staphylococcus aureus assessed as reduction in LDH activity at 1 to 8 times MIC measured after 6 hrs by microplate reader method; format: functional; design: scale not given: the % may be the effect or the level left
# Staphylococcus aureus [14] = test: Bactericidal activity against Staphylococcus aureus assessed as reduction in number of colonies at 0.5 to 2 times MIC measured within 6 hrs by time-kill assay; format: functional, organism-based
# Staphylococcus aureus [15] = test: Inhibition of bacterial growth of Staphylococcus aureus at 1 to 2 times MIC; format: functional
# Staphylococcus aureus [16] = test: Antibacterial activity against Staphylococcus aureus measured by Muller-Hinton broth based microdilution assay; format: functional
# Staphylococcus aureus [17] = test: Disruption of membrane integrity in Staphylococcus aureus at 8 times MIC by calcein-AM/PI staining based fluorescence analysis; format: functional, organism-based
# Escherichia coli [18] = test: Antibacterial activity against Escherichia coli measured by Muller-Hinton broth based microdilution assay; format: functional
# Staphylococcus aureus [19] = test: Disruption of membrane integrity in Staphylococcus aureus assessed as increase in nucleic acid leakage by measuring increase in absorbance 1 to 8 times MIC measured for 6 hrs by spectrophotometry; format: functional, organism-based
# Pseudomonas aeruginosa [20] = test: Antibacterial activity against Pseudomonas aeruginosa ATCC 27853 measured by Muller-Hinton broth based microdilution assay; format: functional
# Staphylococcus aureus [21] = test: Inhibition of biofilm formation in Staphylococcus aureus at 1 to 8 times MIC measured after 24 hrs by crystal violet staining method; format: functional, organism-based
# L929 = test: Cytotoxicity against mouse L929 cells assessed as effect on cell growth at 0.25 to 0.5 ug/ml incubated for 24 hrs by MTT assay; format: toxicity, cell-based; conditions: l929, 24 h, dose 0.25-0.5 µg/ml
# Acinetobacter baumannii = test: Antibacterial activity against Acinetobacter baumannii measured by Muller-Hinton broth based microdilution assay; format: functional
# Staphylococcus aureus [22] = test: Induction of oxidative stress in Staphylococcus aureus assessed as increase in intracellular ROS level at 1 to 8 times MIC measured after 6 hrs by DCFH-DA staining method; format: functional, organism-based
# Pseudomonas aeruginosa [23] = test: Antibacterial activity against Pseudomonas aeruginosa measured by Muller-Hinton broth based microdilution assay; format: functional
# [24] = Hemolytic activity in human RBC assessed as hemolytic rate at 2 to 512 ug/ml and measured after 1 hr; format: toxicity, cell-based, Erythrocyte; conditions: human red blood cells (erythrocytes), at 2 to 512 µg/mL, dose 2-512 µg/ml, read-out: Activity
# Staphylococcus aureus [25] = test: Antibacterial activity against Staphylococcus aureus ATCC 25923 measured by Muller-Hinton broth based microdilution assay; format: functional
Compound,MIC (Enterococcus faecalis) [µg/mL],MIC (Staphylococcus aureus [2]) [µg/mL],MIC (Klebsiella pneumoniae) [µg/mL],MIC (Escherichia coli [3]) [µg/mL],MIC (Staphylococcus aureus [7]) [µg/mL],MIC (Staphylococcus aureus [16]) [µg/mL],MIC (Escherichia coli [18]) [µg/mL],MIC (Pseudomonas aeruginosa [20]) [µg/mL],MIC (Acinetobacter baumannii) [µg/mL],MIC (Pseudomonas aeruginosa [23]) [µg/mL],MIC (Staphylococcus aureus [25]) [µg/mL],other results
O=C1c2cccc3c(N/N=C/c4cccc(Cl)c4)ccc(c23)C(=O)N1C(CO)CO,64,64,8,32,8,0.25,64,2,64,64,32,Activity (Staphylococcus aureus [1]): Active; Activity (Staphylococcus aureus [4]): Active; Activity (Staphylococcus aureus [5]): Active; Activity (Staphylococcus aureus [6]): Active; selectivity ratio [8]: > 4000; Activity (Staphylococcus aureus [9]): Active; Activity (Staphylococcus aureus [10]): Active; Activity (Staphylococcus aureus [11]): Active; HC50 at 1 h [12]: > 1000 µg/mL; Activity (Staphylococcus aureus [13]): 70%; Activity (Staphylococcus aureus [14]): Active; inhibition (Staphylococcus aureus [15]): Active; Activity (Staphylococcus aureus [17]): Active; Activity (Staphylococcus aureus [19]): Active; inhibition (Staphylococcus aureus [21]): Active; Activity (L929): Non-Toxic; Activity (Staphylococcus aureus [22]): Active; hemolysis at 1 h [24]: < 5%
CCOC(=O)Cn1cc(/C=N/Nc2ccc3c4c(cccc24)C(=O)N(C(CO)CO)C3=O)c2ccccc21,64,16,4,32,8,0.25,64,8,32,64,32,Activity (Staphylococcus aureus [1]): Active; Activity (Staphylococcus aureus [4]): Active; Activity (Staphylococcus aureus [5]): Active; Activity (Staphylococcus aureus [6]): Active; selectivity ratio [8]: > 4000; Activity (Staphylococcus aureus [9]): Active; Activity (Staphylococcus aureus [10]): Active; Activity (Staphylococcus aureus [11]): Active; HC50 at 1 h [12]: > 1000 µg/mL; Activity (Staphylococcus aureus [13]): 70%; Activity (Staphylococcus aureus [14]): Active; inhibition (Staphylococcus aureus [15]): Active; Activity (Staphylococcus aureus [17]): Active; Activity (Staphylococcus aureus [19]): Active; inhibition (Staphylococcus aureus [21]): Active; Activity (L929): Non-Toxic; Activity (Staphylococcus aureus [22]): Active; hemolysis at 1 h [24]: < 5%
O=C1c2cccc3c(N/N=C/c4nc5ccccc5[nH]4)ccc(c23)C(=O)N1C(CO)CO,64,64,32,32,128,32,8,64,64,16,64,–
O=C1c2cccc3c(N/N=C/c4ccc(Cl)cc4Cl)ccc(c23)C(=O)N1C(CO)CO,64,32,128,256,8,32,256,128,128,128,8,–
O=C1c2cccc3c(N/N=C/c4ccccc4)ccc(c23)C(=O)N1C(CO)CO,64,64,16,64,32,64,128,32,64,1,2,–
O=C1c2cccc3c(N/N=C/c4ccc(O)c([N+](=O)[O-])c4)ccc(c23)C(=O)N1C(CO)CO,16,64,4,32,8,4,32,8,32,32,4,–
O=C1c2cccc3c(N/N=C/c4ccc(Cl)cc4)ccc(c23)C(=O)N1C(CO)CO,32,16,16,64,128,32,64,32,128,32,64,–
O=C1c2cccc3c(N/N=C/c4csc5ccccc45)ccc(c23)C(=O)N1C(CO)CO,64,64,32,64,128,64,32,64,64,64,64,–
O=C1c2cccc(O)c2C(=O)c2c(O)cc(/C=N/Nc3ccc4c5c(cccc35)C(=O)N(C(CO)CO)C4=O)cc21,64,64,32,32,128,32,8,64,64,16,64,–
